Blank lines part the entries; values can stand above or below the molecule they belong to.
Assay: Thermal crystal transformation test (hot stage, XRPD)
Assay type: physicochemical
Conditions: for Results (crystal form after thermal crystal transformation, XRPD): heating rate 10° C./min, holding time 1 min
Procedure: The present invention further provides a method for preparing the polymorph of any one of Form A to Form Z, including: • (1) suspension method: adding a crude free base of the compound of formula I (which can be prepared according to the methods described in WO 2019240938 A1) to a selected single or binary solvent until a suspension is formed and stirring same under suspension at room temperature to 50° C. for a period of time (e.g., 1 h to 3 days, or 2 h to 24 h, or 2 h to 12 h, or 3 h to 5 h), and then centrifuging and separating the suspension, followed by drying, to obtain the product; or • (2) Anti-solvent crystallization method: adding a crude free base of the compound of formula I to an appropriate amount of a good solvent until completely dissolved, taking an amount of the solution and dropwise adding same to a poor solvent or dropwise adding a poor solvent to the solution, and stirring same to precipitate a solid, followed by separation and drying to obtain the product; or • (3) cooling method: adding a crude free base of the compound of formula I to an appropriate amount of a solvent at 50-80° C. until the solid is just completely dissolved, and transferring the solution to an environment at room temperature for cooling, followed by leaving to stand or crystallization under stirring, separation and drying to obtain the product; or • (4) vapor diffusion method: dropwise adding an appropriate amount of a good solvent to an amount of a crude free base of the compound of formula I at room temperature to completely dissolve the sample or formulating same as a saturated solution of a good solvent; and separately taking an amount of the solution, and leaving the clear solution to stand in a poor solvent atmosphere at room temperature until a solid precipitates out, followed by separation, to obtain the product; or • (5) thermal crystal transformation method: placing an amount of the sample on a glass plate on a hot stage, heating same to the target temperature at a rate (e.g., 5-20° C./min, or 10-15° C./min), and maintaining the temperature for a period of time (e.g., 0.5-5 min, or 1-3 min, or 1-2 min), followed by naturally cooling down to room temperature to obtain a solid.
The different crystal forms, as raw materials, were heated to the target temperature on a hot table and held for 1 min, and cooled to room temperature to obtain solids for the XRPD test.

SMILES: [2H]C([2H])([2H])[C@@H]1CCc2c(Oc3c(Cl)cc(-n4nc(C#N)c(=O)[nH]c4=O)cc3Cl)n[nH]c(=O)c21 [Form V, (R)-2-(3,5-dichloro-4-((7-(methyl-d3)-1-oxo-2,5,6,7-tetrahydro-1H-cyclopenta [d]pyridazin-4-yl)oxy)phenyl)-3,5-dioxo-2,3,4,5-tetrahydro-1,2,4-triazine-6-carbonitrile]
- crystal form after thermal crystal transformation (heated to 150° C.): Form V

SMILES: [2H]C([2H])([2H])[C@@H]1CCc2c(Oc3c(Cl)cc(-n4nc(C#N)c(=O)[nH]c4=O)cc3Cl)n[nH]c(=O)c21 [Form J, (R)-2-(3,5-dichloro-4-((7-(methyl-d3)-1-oxo-2,5,6,7-tetrahydro-1H-cyclopenta [d]pyridazin-4-yl)oxy)phenyl)-3,5-dioxo-2,3,4,5-tetrahydro-1,2,4-triazine-6-carbonitrile]
- Results (crystal form after thermal crystal transformation, XRPD) (target temperature 160° C.): Form C

SMILES: [2H]C([2H])([2H])[C@@H]1CCc2c(Oc3c(Cl)cc(-n4nc(C#N)c(=O)[nH]c4=O)cc3Cl)n[nH]c(=O)c21 [Form M, (R)-2-(3,5-dichloro-4-((7-(methyl-d3)-1-oxo-2,5,6,7-tetrahydro-1H-cyclopenta [d]pyridazin-4-yl)oxy)phenyl)-3,5-dioxo-2,3,4,5-tetrahydro-1,2,4-triazine-6-carbonitrile]
- Results (crystal form after thermal crystal transformation, XRPD) (target temperature 260° C.): Form C

SMILES: [2H]C([2H])([2H])[C@@H]1CCc2c(Oc3c(Cl)cc(-n4nc(C#N)c(=O)[nH]c4=O)cc3Cl)n[nH]c(=O)c21 [Form F, (R)-2-(3,5-dichloro-4-((7-(methyl-d3)-1-oxo-2,5,6,7-tetrahydro-1H-cyclopenta [d]pyridazin-4-yl)oxy)phenyl)-3,5-dioxo-2,3,4,5-tetrahydro-1,2,4-triazine-6-carbonitrile]
- crystal form after thermal crystal transformation (heated to 230° C. or more): Form C
- Results (crystal form after thermal crystal transformation, XRPD) (target temperature 230° C.): Form C

SMILES: [2H]C([2H])([2H])[C@@H]1CCc2c(Oc3c(Cl)cc(-n4nc(C#N)c(=O)[nH]c4=O)cc3Cl)n[nH]c(=O)c21 [Form L, (R)-2-(3,5-dichloro-4-((7-(methyl-d3)-1-oxo-2,5,6,7-tetrahydro-1H-cyclopenta [d]pyridazin-4-yl)oxy)phenyl)-3,5-dioxo-2,3,4,5-tetrahydro-1,2,4-triazine-6-carbonitrile]
- crystal form after thermal crystal transformation (heated to 100° C.): Form A
- crystal form after thermal crystal transformation (heated to 190° C.): Form C
- Results (crystal form after thermal crystal transformation, XRPD) (target temperature 100° C.): Form A
- Results (crystal form after thermal crystal transformation, XRPD) (target temperature 190° C.): Form C

The next lines start with results.

- crystal form after thermal crystal transformation (by desolvation): Form C
- Results (crystal form after thermal crystal transformation, XRPD) (target temperature 180° C.): Form C
SMILES: [2H]C([2H])([2H])[C@@H]1CCc2c(Oc3c(Cl)cc(-n4nc(C#N)c(=O)[nH]c4=O)cc3Cl)n[nH]c(=O)c21 [Form E, (R)-2-(3,5-dichloro-4-((7-(methyl-d3)-1-oxo-2,5,6,7-tetrahydro-1H-cyclopenta [d]pyridazin-4-yl)oxy)phenyl)-3,5-dioxo-2,3,4,5-tetrahydro-1,2,4-triazine-6-carbonitrile]

- crystal form after thermal crystal transformation (heated to 150° C.): Form A
- crystal form after thermal crystal transformation (heated to 300° C.): Form C
- Results (crystal form after thermal crystal transformation, XRPD) (target temperature 150° C.): Form A
- Results (crystal form after thermal crystal transformation, XRPD) (target temperature 300° C.): Form C
SMILES: [2H]C([2H])([2H])[C@@H]1CCc2c(Oc3c(Cl)cc(-n4nc(C#N)c(=O)[nH]c4=O)cc3Cl)n[nH]c(=O)c21 [Form A, (R)-2-(3,5-dichloro-4-((7-(methyl-d3)-1-oxo-2,5,6,7-tetrahydro-1H-cyclopenta [d]pyridazin-4-yl)oxy)phenyl)-3,5-dioxo-2,3,4,5-tetrahydro-1,2,4-triazine-6-carbonitrile]

- Results (crystal form after thermal crystal transformation, XRPD) (target temperature 235° C.): Form C
SMILES: [2H]C([2H])([2H])[C@@H]1CCc2c(Oc3c(Cl)cc(-n4nc(C#N)c(=O)[nH]c4=O)cc3Cl)n[nH]c(=O)c21 [Form N, (R)-2-(3,5-dichloro-4-((7-(methyl-d3)-1-oxo-2,5,6,7-tetrahydro-1H-cyclopenta [d]pyridazin-4-yl)oxy)phenyl)-3,5-dioxo-2,3,4,5-tetrahydro-1,2,4-triazine-6-carbonitrile]
- crystal form after thermal crystal transformation (heated to 235° C. or more): Form C with a slightly less crystallinity

- crystal form after thermal crystal transformation (heated to 260° C. or more): Form C
SMILES: [2H]C([2H])([2H])[C@@H]1CCc2c(Oc3c(Cl)cc(-n4nc(C#N)c(=O)[nH]c4=O)cc3Cl)n[nH]c(=O)c21 [Form K, (R)-2-(3,5-dichloro-4-((7-(methyl-d3)-1-oxo-2,5,6,7-tetrahydro-1H-cyclopenta [d]pyridazin-4-yl)oxy)phenyl)-3,5-dioxo-2,3,4,5-tetrahydro-1,2,4-triazine-6-carbonitrile]

- Results (crystal form after thermal crystal transformation, XRPD) (target temperature 200° C.): Form C
SMILES: [2H]C([2H])([2H])[C@@H]1CCc2c(Oc3c(Cl)cc(-n4nc(C#N)c(=O)[nH]c4=O)cc3Cl)n[nH]c(=O)c21 [Form R, (R)-2-(3,5-dichloro-4-((7-(methyl-d3)-1-oxo-2,5,6,7-tetrahydro-1H-cyclopenta [d]pyridazin-4-yl)oxy)phenyl)-3,5-dioxo-2,3,4,5-tetrahydro-1,2,4-triazine-6-carbonitrile]

— patent US20250179050A1, “POLYMORPH AS THYROID HORMONE RECEPTOR AGONISTS AND USE THEREOF” (XIZANG HAISCO PHARMACEUTICAL CO., LTD., priority 2022, published 2025)
